pIC50: −log10 of the molar value. Where two headings read alike, the source gives them in different places.
How the values were obtained:
Format in all cases: biochemical
[1] = target: T1, recombinant human MMP-9 mixture (± 70% monomers and ± 30% trimers) (Homo sapiens, UniProt P14780); test: Fluorogenic peptide (OmniMMP) degradation assay, recombinant MMP-9 mixture; details: recombinant human MMP-9 (Sf9) mix
T1 construct: made in house; host or cells: Sf9 insect cells
Protocol: (§1) Compounds 5 and 7 were synthesized as previously reported. Full-length human proMMP-9 was produced by recombinant expression in Sf9 insect cells and purified by gelatin-Sepharose chromatography as previously described. Stable full-length proMMP-9 monomers and trimers were separated by glycerol gradient ultracentrifugation as previously described. ProMMP-9 mixture and the separated monomers and trimers were activated by incubation with the catalytic domain of MMP-3 (cat. No. 444217, Merck Millipore, Darmstadt, Germany) as previously described. Activation of proMMP-9 was confirmed by a band shift of ±10 kDa, corresponding to the removal of the auto-inhibitory propeptide domain and by detection of gelatinolytic activity with a previously described gelatin degradation assay. MMP-9 monomers and trimers purified from human neutrophils were purchased (Cat. No. 444,231 and 444232, Sigma-Aldrich, St. Louis, MO, USA). Examples of sample purities and activations can be found in Supplementary Figure S1. Recombinant human proMMP-2 (CHO cell-derived), proMMP-3 (NS0 cell-derived), proMMP-7 (NS0 cell-derived) and proMMP-8 (NS0 cell-derived) were purchased from R & D systems (Minneapolis, MN, USA), dissolved in assay buffer (150 mM NaCl, 5 mM CaCl2, 0.01% Tween-20, 50 mM Tris, pH 7.4) to a concentration of 100 µg/mL and activated by incubation with 1 mM p-aminophenylmercuric acetate for, respectively, 1h, 6h, 2h and 1h. Activation of MMPs was confirmed by a band shift of approximately 10 kDa, corresponding to the removal of the propeptide domain. MMP-14/MT1-MMP (NS0 cell-derived) was also purchased from R & D systems (Minneapolis, MN, USA) and activated by incubation with recombinant human furin (cat. No. 1503-SE-010, R & D systems, Minneapolis, MO, USA) in activation buffer (50 mM Tris, 1 mM CaCl2, 0.5% Brij-35, pH 9) for 1.5 h and activity was tested in assay buffer (50 mM Tris, 3 mM CaCl2, 1 µM ZnCl2, pH 8.5). Active human neutrophil elastase (NE) was purchased from Abcam (Cambridge, UK) and for activity assays of NE the assay buffer was replaced by 200 mM Tris, pH 8.8. ADAM17/TACE (Sf 21 (baculovirus)-derived, R & D systems, Minneapolis, MO, USA) was diluted and evaluated in 25 mM Tris, 2.5 μM ZnCl2, 0.005% Brij-35, pH 9.0. All stocks of the compounds were evaluated for the presence of endotoxin using the EndoZyme II assay (Hyglos bioMérieux, Bernried am Starnberger See, Germany). Endotoxin levels in all concentrated stocks (2.5 mg/mL) were below the accepted limit of 0.5 EU/mL.
To determine the inhibition of gelatinolytic activity, we used a previously optimized gelatin degradation assay. […] […] […] BML-P126-0001, Enzo Life Sciences, Farmingdale, NY, USA) was used at a final concentration of 2.5 µg/mL. For ADAM17 the fluorogenic peptide Mca-PLAQAV-Dpa-RSSSR-NH2 (ES003, R & D systems, Minneapolis, MO, USA) and for neutrophil elastase the fluorogenic substrate MeOSuc-AAPV-AMC (cat. no. 324740, Merck Millipore, Darmstadt, Germany) were used. Proteolytic activity was determined by linear regression of the fluorescence curve and the percentage inhibition was calculated through comparison with the positive control (no inhibitors). When testing supernatants from human neutrophils, the assay was performed in the presence of 20 µM neutrophil elastase inhibitor (Elastase Inhibitor IV, Calbiochem, Darmstadt, Germany).

MMP-14/MT1-MMP = target: T2, MMP-14/MT1-MMP (Homo sapiens, UniProt P50281); test: MMP-14 OmniMMP peptide assay
T2 construct: purchased R & D systems; host or cells: NS0 cells
Protocol: as §1, with “Active human neutrophil elastase (NE) was purchased from Abcam (Cambridge, UK) and for activity assays of NE the assay buffer was replaced by 200 mM Tris, pH 8.8.” left out, “Endotoxin levels in all concentrated stocks (2.5 mg/mL) were below the accepted limit of 0.5 EU/mL.” left out
To determine the inhibition of gelatinolytic activity, we used a previously optimized gelatin degradation assay. […] Next, dye-quenched gelatin (DQ™-gelatin, Invitrogen, Carlsbad, CA, USA) was added at a final concentration of 2.5 µg/mL and the increase in fluorescence over time was measured with the CLARIOstar microplate reader (BMG Labtech, Ortenberg, Germany). […] Proteolytic activity was determined by linear regression of the fluorescence curve and the percentage inhibition was calculated through comparison with the positive control (no inhibitors). […]

[2] = tested on: secretions of fMLF stimulated human granulocytes; test: Gelatinolysis in secretions of fMLF stimulated human granulocytes; details: in the presence of 20 µM neutrophil elastase inhibitor; for inhibition of metalloproteinase-derived gelatinolytic signal: highest dose of 100 µM
Protocol: To determine the inhibition of gelatinolytic activity, we used a previously optimized gelatin degradation assay. Activated MMP-9, activated MMP-2, neutrophil elastase or supernatants of stimulated neutrophils, were incubated with different concentrations of inhibitors and incubated for 30 min at 37 °C. Next, dye-quenched gelatin (DQ™-gelatin, Invitrogen, Carlsbad, CA, USA) was added at a final concentration of 2.5 µg/mL and the increase in fluorescence over time was measured with the CLARIOstar microplate reader (BMG Labtech, Ortenberg, Germany). For other MMPs, the OmniMMP substrate peptide (Mca-PLGL-Dpa-AR-NH2, cat. no. BML-P126-0001, Enzo Life Sciences, Farmingdale, NY, USA) was used at a final concentration of 2.5 µg/mL. For ADAM17 the fluorogenic peptide Mca-PLAQAV-Dpa-RSSSR-NH2 (ES003, R & D systems, Minneapolis, MO, USA) and for neutrophil elastase the fluorogenic substrate MeOSuc-AAPV-AMC (cat. no. 324740, Merck Millipore, Darmstadt, Germany) were used. Proteolytic activity was determined by linear regression of the fluorescence curve and the percentage inhibition was calculated through comparison with the positive control (no inhibitors). When testing supernatants from human neutrophils, the assay was performed in the presence of 20 µM neutrophil elastase inhibitor (Elastase Inhibitor IV, Calbiochem, Darmstadt, Germany).
Neutrophils were isolated from fresh blood from healthy donors, via density gradient centrifugation as described. To obtain neutrophil degranulate, neutrophils were suspended in degranulation buffer (120 mM NaCl, 15 mM CaCl2, 20 mM Tris/HCl pH 7.5) at a concentration of 10^7 cells/mL and degranulation was induced by incubating neutrophils with N-formyl-methionyl-leucyl-phenylalanine (fMLF) (final concentration 0.5 µM) for 20 min at 37 °C as previously described. Next, the supernatant was collected by centrifugation. For fresh blood donations, all subjects gave written informed consent in accordance with the Declaration of Helsinki.

T1 sequence (P14780 107-707 limits assumed): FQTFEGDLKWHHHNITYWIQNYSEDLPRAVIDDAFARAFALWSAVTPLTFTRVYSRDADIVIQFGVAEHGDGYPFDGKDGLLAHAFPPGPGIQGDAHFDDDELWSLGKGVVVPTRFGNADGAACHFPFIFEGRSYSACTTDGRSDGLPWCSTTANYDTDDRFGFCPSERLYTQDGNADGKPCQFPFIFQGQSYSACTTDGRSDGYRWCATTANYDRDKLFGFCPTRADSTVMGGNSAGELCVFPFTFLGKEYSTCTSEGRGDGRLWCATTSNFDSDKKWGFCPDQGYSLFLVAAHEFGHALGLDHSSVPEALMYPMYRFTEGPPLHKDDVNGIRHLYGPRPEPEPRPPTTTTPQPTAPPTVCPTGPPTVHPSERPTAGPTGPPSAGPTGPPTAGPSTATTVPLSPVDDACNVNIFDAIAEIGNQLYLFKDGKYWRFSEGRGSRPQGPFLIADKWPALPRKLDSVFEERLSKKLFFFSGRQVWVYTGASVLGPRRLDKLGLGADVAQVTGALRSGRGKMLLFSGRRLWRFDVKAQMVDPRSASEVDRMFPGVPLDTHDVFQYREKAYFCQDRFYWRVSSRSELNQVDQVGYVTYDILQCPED

CC(C)[C@H](C(=O)O)N(CCNC(=O)c1ccccc1)S(=O)(=O)c1ccc(-c2ccccc2)cc1 [Compound 5]
IC25 [1]: 228 nM
pIC50 [1]: 6.14
IC75 [1]: 2309 nM
pIC50 (MMP-14/MT1-MMP): < 6.00
pIC50 (MMP-14/MT1-MMP; OmniMMP substrate peptide): 4.83
inhibition of metalloproteinase-derived gelatinolytic signal [2]: approximately 30%

CC(C)[C@H](C(=O)O)N(CCNC(=O)c1cccc(C(=O)NCCN([C@@H](C(=O)O)C(C)C)S(=O)(=O)c2ccc(-c3ccccc3)cc2)c1)S(=O)(=O)c1ccc(-c2ccccc2)cc1 [Compound 7]
IC25 [1]: 1.4 nM
pIC50 [1]: 7.82
IC75 [1]: 169 nM
pIC50 (MMP-14/MT1-MMP): < 6.00
pIC50 (MMP-14/MT1-MMP; OmniMMP substrate peptide): 5.97
inhibition of metalloproteinase-derived gelatinolytic signal, first inhibition plateau ([2]; around a concentration of 1 µM): approximately 30%
inhibition of metalloproteinase-derived gelatinolytic signal [2]: almost complete inhibition
